Measured values published in BindingDB's records for doi:10.1021/jm970519e (Smithkline Beecham Pharmaceuticals, 1998).

How the values were obtained:
[1] = target: 5-hydroxytryptamine receptor 6 (Homo sapiens, UniProt P50406)
[2] = target: 5-hydroxytryptamine receptor 1E (Homo sapiens, UniProt P28566)
[3] = target: T1, 5-hydroxytryptamine receptor 2C (Homo sapiens, UniProt P28335)
T1 sequence (P28335 whole entry): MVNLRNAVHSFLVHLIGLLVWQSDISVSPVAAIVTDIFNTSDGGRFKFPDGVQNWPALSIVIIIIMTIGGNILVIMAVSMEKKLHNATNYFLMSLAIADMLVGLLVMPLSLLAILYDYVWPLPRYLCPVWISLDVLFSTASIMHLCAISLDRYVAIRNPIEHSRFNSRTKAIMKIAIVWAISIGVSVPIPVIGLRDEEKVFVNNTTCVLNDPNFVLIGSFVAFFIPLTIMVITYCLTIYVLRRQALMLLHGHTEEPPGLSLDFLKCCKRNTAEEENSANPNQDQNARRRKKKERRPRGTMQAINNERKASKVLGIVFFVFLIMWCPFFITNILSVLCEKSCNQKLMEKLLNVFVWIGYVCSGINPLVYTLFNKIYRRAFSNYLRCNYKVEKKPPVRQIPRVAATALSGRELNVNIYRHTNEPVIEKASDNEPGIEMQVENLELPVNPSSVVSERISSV

[4] = target: 5-hydroxytryptamine receptor 2A (Homo sapiens, UniProt P28223)
[5] = target: T2, Alpha-1B adrenergic receptor (Homo sapiens, UniProt P35368)
T2 sequence (P35368 whole entry): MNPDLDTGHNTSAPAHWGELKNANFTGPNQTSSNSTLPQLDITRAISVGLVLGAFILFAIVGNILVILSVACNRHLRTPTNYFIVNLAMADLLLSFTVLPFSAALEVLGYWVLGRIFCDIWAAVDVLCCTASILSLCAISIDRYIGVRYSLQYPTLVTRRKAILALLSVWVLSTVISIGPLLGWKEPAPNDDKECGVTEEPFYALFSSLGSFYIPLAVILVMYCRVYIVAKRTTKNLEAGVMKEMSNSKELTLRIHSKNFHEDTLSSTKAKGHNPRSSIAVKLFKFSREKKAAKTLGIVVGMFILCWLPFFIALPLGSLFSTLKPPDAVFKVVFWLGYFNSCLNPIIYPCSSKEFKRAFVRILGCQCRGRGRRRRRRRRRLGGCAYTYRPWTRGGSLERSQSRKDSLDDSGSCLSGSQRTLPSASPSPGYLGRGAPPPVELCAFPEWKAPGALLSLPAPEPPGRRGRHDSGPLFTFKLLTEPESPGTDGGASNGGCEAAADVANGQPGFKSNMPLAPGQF

Measured: Ki

5-hydroxytryptamine receptor 6, sequence (P50406 whole entry): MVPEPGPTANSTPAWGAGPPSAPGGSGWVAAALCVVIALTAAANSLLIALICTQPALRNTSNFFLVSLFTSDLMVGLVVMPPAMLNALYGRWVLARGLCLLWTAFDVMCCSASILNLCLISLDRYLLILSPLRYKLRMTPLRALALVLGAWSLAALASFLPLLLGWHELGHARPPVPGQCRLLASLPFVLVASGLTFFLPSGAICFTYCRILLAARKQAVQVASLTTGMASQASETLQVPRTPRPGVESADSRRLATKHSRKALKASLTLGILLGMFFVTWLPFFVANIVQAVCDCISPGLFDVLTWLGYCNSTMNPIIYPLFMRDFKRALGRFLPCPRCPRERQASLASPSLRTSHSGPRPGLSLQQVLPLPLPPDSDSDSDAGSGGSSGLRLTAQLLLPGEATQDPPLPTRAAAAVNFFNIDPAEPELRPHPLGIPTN
5-hydroxytryptamine receptor 2A, sequence (P28223 whole entry): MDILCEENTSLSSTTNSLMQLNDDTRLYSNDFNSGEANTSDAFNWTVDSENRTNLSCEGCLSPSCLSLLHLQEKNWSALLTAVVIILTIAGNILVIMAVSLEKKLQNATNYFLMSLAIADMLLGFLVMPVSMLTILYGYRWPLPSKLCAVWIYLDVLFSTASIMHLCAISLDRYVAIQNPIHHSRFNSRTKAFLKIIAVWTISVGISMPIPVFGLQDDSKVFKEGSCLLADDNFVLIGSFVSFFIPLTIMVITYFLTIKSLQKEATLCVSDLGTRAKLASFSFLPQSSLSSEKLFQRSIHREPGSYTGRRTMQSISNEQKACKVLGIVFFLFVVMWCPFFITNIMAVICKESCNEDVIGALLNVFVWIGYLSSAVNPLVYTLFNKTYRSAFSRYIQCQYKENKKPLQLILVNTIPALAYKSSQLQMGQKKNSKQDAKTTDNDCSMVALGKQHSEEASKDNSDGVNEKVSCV
5-hydroxytryptamine receptor 1E, sequence (P28566 whole entry): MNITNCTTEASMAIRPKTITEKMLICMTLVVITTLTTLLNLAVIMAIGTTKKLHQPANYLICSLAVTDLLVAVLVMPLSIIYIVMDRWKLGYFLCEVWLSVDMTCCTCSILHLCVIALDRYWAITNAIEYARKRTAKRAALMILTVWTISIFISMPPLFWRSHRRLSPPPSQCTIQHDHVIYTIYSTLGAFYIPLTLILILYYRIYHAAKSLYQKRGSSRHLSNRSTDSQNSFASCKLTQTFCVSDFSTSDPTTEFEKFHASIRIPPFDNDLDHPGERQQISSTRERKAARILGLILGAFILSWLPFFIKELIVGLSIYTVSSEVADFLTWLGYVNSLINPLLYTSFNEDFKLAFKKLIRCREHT

Cc1cccc(S(=O)(=O)N(C)[C@H](C)CCN2CCC(C)CC2)c1 [SB-258719]
> 10 µM: all assays above
